# Results taken from patent US20250339402A1, “EFFECTIVE MEANS TO MODULATE NMDA RECEPTOR-MEDIATED TOXICITY” (FUNDAMENTAL PHARMA GMBH, priority 2022, published 2025).
# “Also recorded” adds a separate entry of the source. Structures can show the parent of a compound that is named as a salt.
# Experiments:
# [1] = test system: Primary mouse hippocampal neurons; test: Excitotoxic (glutamate/NMDA-induced) cell death in primary neuronal cultures, protection index; assay type: cell-based; conditions: for IC50: Mus musculus, Hippocampal neuron, excitotoxic cell death in primary neuronal cultures
# Description: (§1) Primary mouse hippocampal neurons were prepared as previously described (Bading & Greenberg, Science, 1991; 253: 912-914; Zhang et al, Neuron, 2007, 53: 549-562) and maintained in Neurobasal-A medium supplemented with 2% B27, 5 mM L-Glutamax, and 0.5% Penicillin/Streptomycin until challenged with NMDA on days in vitro (DIV) 10. Glutamate-induced cell death was analyzed in a real-time manner by monitoring nuclear localized mCherry with IncuCyte® S3 Live-Cell Analysis System (Sartorius AG, Germany). Primary neurons plated in 24 well plates were infected with rAAV-hSyn-mCherry on DIV3 and challenged with 1 μM or 20 μM glutamate on DIV10. All compounds were added to the culture 30 min prior to glutamate/NMDA insult. Images were acquired following the glutamate application for 24 h with a 2 h interval, where 9-16 images were obtained via a 20×objective for each condition at each time point. Cell deaths were quantified by analyzing the existence of nuclear localized mCheery via the Basic Analyzer with Incucyte® 2021 software, size and average intensity were used as exclusion criteria.
# In order to evaluate the protective effects of various compounds, a quantification method was developed to determine each compound's protection index. The protection index (from 0.0 to 10.0) was calculated by the area above the curve (AAC) during a 24 h excitotoxic stimuli, where the cell survival was normalized to the 0 h (FIG. 2), following the equation: […]
# Where AAC represents for each compound, AACbasal represents for the basal condition without excitotoxic insult, AACVeh represents for the vehicle control with excitotoxic insult. Based on the equation, vehicle (DMSO) has a protection index at 0.0 and compound P401 of WO 2020/079244 has a protection index at 6.0 (at 10 μM).
# The inventors also performed experiments with Group A compounds at lower concentration in a 3-fold dilution matter ([…]: 3.0, 1.0, 0.3, 0.1, 0.03) and were able to achieve a similar protection effect as 10 μM compound P401, but at a lower concentration.
# Primary neurons = test: Reactive oxygen species (H2O2) induced neuronal death in primary neurons; assay type: cell-based, mouse; conditions: 300 μM H2O2 on DIV10, compounds added 30 min before, FIG. 3
# Description: as §1, with “Images were acquired following the glutamate application for 24 h with a 2 h interval, where 9-16 images were obtained via a 20×objective for each condition at each time point.” left out
# Primary neurons plated in 24 well plates were infected with rAAV-hSyn-mCherry on DIV3 and challenged with 300 μM H2O2 on DIV10. […] Cell deaths were quantified by analyzing the existence of nuclear localized mCherry via the Basic Analyzer with Incucyte® 2021 software, size and average intensity were used as exclusion criteria.
# [2] = third subset, A++++ or above correlates with IC50, A++ and A+++ as defined in the source
SMILES,IC50 ([1]; third subset),other results
"N#Cc1cccc(CN(CCN)C2CC2)c1F [Compound 219, 3-(((2-aminoethyl)(cyclopropyl)amino)methyl)-2-fluorobenzonitrile hydrochloride]",480 nM,"Biological Activity Rating [1, 2]: A+++"
NCCN(Cc1cccc(Br)c1F)C1CC1 [Compound 219B],1450 nM,"Biological Activity Rating [1, 2]: A++"
"CC(c1cccc(Cl)c1F)N(CCN)C1CC1 (centres unmarked) [Compound 220, N1-(1-(3-chloro-2-fluorophenyl)ethyl)-N1-cyclopropylethane-1,2-diamine hydrochloride]",,"protection against H2O2 insult (cell survival) (Primary neurons; hydrochloride): better protection against H2O2 insult compared to P401 at 10 μM; also recorded: even better protection than the prior art compound P401; Biological Activity Rating ([1]; second subset, protection index from area above curve over 24 h glutamate/NMDA insult, compounds added 30 min before, 10 μM, Group A also at lower concentrations, hydrochloride): A++++ (With a protection index between 5.0 to 7.0, provides a comparable protection to compound P401 (10 μM) at 0.1 μM.)"
"CCC(c1cccc(Cl)c1F)N(CCN)C1CC1 (centres unmarked) [Compound 224, N1-(1-(3-chloro-2-fluorophenyl)propyl)-N1-cyclopropylethane-1,2-diamine hydrochloride]",26 nM,
CC(C)C(c1cccc(Cl)c1F)N(CCN)C1CC1 (centres unmarked) [Compound 225],5 nM,
CC(c1cccc(Br)c1F)N(CCN)C1CCC1 (centres unmarked) [Compound 227B],300 nM,"Biological Activity Rating [1, 2]: A+++"
CC(c1c(Cl)ccc(Cl)c1F)N(CCN)C1CC1 (centres unmarked) [Compound 242],300 nM,"Biological Activity Rating [1, 2]: A+++"
CC(c1cc(Cl)ccc1F)N(CCN)C1CC1 (centres unmarked) [Compound 243],300 nM,"Biological Activity Rating [1, 2]: A+++"
CC(c1cccc(F)c1Cl)N(CCN)C1CC1 (centres unmarked) [Compound 246],500 nM,"Biological Activity Rating [1, 2]: A+++"
"NCCN(C1CC1)C(CC(F)(F)F)c1cccc(Cl)c1F (centres unmarked) [Compound 247, N^1-(1-(3-chloro-2-fluorophenyl)-3,3,3-trifluoropropyl)-N^1-cyclopropylethane-1,2-diamine hydrochloride]",10 nM,
CCC(c1cccc(Cl)c1F)N(CCN)C1CC(F)(F)C1 (centres unmarked) [Compound 248],120 nM,
"CCC(c1cccc(C#N)c1F)N(CCN)C1CC1 (centres unmarked) [Compound 257, 3-(1-((2-aminoethyl)(cyclopropyl)amino)propyl)-2-fluorobenzonitrile hydrochloride]",11 nM,
CCC(c1cccc(Br)c1F)N(CCN)C1CC1 (centres unmarked) [Compound 258],13 nM,
CCC(c1c(F)ccc(C#N)c1F)N(CCN)C1CC1 (centres unmarked) [Compound 259],32 nM,
"N#Cc1cccc(C(N(CCN)C2CC2)C(F)(F)F)c1F (centres unmarked) [Compound 261, 3-[1-[2-aminoethyl(cyclopropyl)amino]-2,2,2-trifluoro-ethyl]-2-fluoro-benzonitrile hydrochloride]",109 nM,
"NCCN(C1CC1)C(c1cccc(Br)c1F)C(F)(F)F (centres unmarked) [Compound 261A, N′-[1-(3-bromo-2-fluoro-phenyl)-2,2,2-trifluoro-ethyl]-N′-cyclopropyl-ethane-1,2-diamine hydrochloride]",33 nM,
"CCCN(CCN)C(CC)c1cccc(Cl)c1F (centres unmarked) [Compound 262, N1-(1-(3-chloro-2-fluorophenyl)propyl)-N1-propylethane-1,2-diamine hydrochloride]",10 nM,

SMILES,IC50 ([1]; third subset),other results
"NCCN(C1CC1)C(c1cccc(Cl)c1F)C(F)(F)F (centres unmarked) [Compound 263, N^1-(1-(3-chloro-2-fluorophenyl)-2,2,2-trifluoroethyl)-N^1-cyclopropylethane-1,2-diamine hydrochloride]",255 nM,
"CC(C)C(c1cccc(C#N)c1F)N(CCN)C1CC1 (centres unmarked) [Compound 264, 3-(1-((2-aminoethyl)(cyclopropyl)amino)-2-methylpropyl)-2-fluorobenzonitrile TFA salt]",3 nM,
"NCCN(C1CC1)C(c1cccc(Cl)c1F)C1CCC1 (centres unmarked) [Compound 267, N^1-((3-chloro-2-fluorophenyl)(cyclobutyl)methyl)-N^1-cyclopropylethane-1,2-diamine hydrochloride]",130 nM,
NCCN(C1CC1)C(c1cccc(Cl)c1F)C1CCCC1 (centres unmarked) [Compound 268],280 nM,
"NCCN(C1CC1)C(c1cccc(Cl)c1F)C(F)(F)C(F)(F)F (centres unmarked) [Compound 270, N1-(1-(3-chloro-2-fluorophenyl)-2,2,3,3,3-pentafluoropropyl)-N1-cyclopropylethane-1,2-diamine TFA salt]",13 nM,
"C=CCC(c1cccc(Cl)c1F)N(CCN)C1CC1 (centres unmarked) [Compound 271A, N′-[1-(3-chloro-2-fluoro-phenyl)but-3-enyl]-N′-cyclopropyl-ethane-1,2-diamine TFA salt]",7 nM,
"NCCN(C1CC1)C(c1cccc(Cl)c1F)C(F)F (centres unmarked) [Compound 275, N1-(1-(3-chloro-2-fluorophenyl)-2,2-difluoroethyl)-N1-cyclopropylethane-1,2-diamine hydrochloride]",468 nM,"Biological Activity Rating [1, 2]: A+++"
"CC(c1cc(Cl)cs1)N(CCN)C1CC1 (centres unmarked) [Compound 279, N′-[1-(4-chloro-2-thienyl)ethyl]-N′-cyclopropyl-ethane-1,2-diamine hydrochloride]",230 nM,
"N#Cc1cccc(C(CC(F)(F)F)N(CCN)C2CC2)c1F (centres unmarked) [Compound 280, 3-(1-((2-aminoethyl)(cyclopropyl)amino)-3,3,3-trifluoropropyl)-2-fluorobenzonitrile hydrochloride]",36 nM,
"CC(C)C(c1cccc(Cl)c1F)N(CCN)CC(F)F (centres unmarked) [Compound 282, N′-[1-(3-chloro-2-fluoro-phenyl)-2-methyl-propyl]-N′-(2,2-difluoroethyl)ethane-1,2-diamine TFA salt]",51 nM,
"CC(C)(F)C(c1cccc(C#N)c1F)N(CCN)C1CC1 (centres unmarked) [Compound 287, 3-[1-[2-aminoethyl(cyclopropyl)amino]-2-fluoro-2-methyl-propyl]-2-fluoro-benzonitrile TFA salt]",3 nM,
"CC(C)C(c1cccc(Br)c1F)N(CCN)C1CC1 (centres unmarked) [Compound 294, N′-[1-(3-bromo-2-fluoro-phenyl)-2-methyl-propyl]-N′-cyclopropyl-ethane-1,2-diamine TFA salt]",10 nM,
"C#Cc1cccc(C(C)N(CCN)C2CC2)c1F (centres unmarked) [Compound 295, N′-cyclopropyl-N′-[1-(3-ethynyl-2-fluoro-phenyl)ethyl]ethane-1,2-diamine TFA salt]",32 nM,
"CC(c1scc(C#N)c1F)N(CCN)C1CC1 (centres unmarked) [Compound 297, 5-[1-[2-aminoethyl(cyclopropyl)amino]ethyl]-4-fluoro-thiophene-3-carbonitrile TFA salt]",974 nM,"Biological Activity Rating [1, 2]: A+++"
"CC(c1scc(Br)c1F)N(CCN)C1CC1 (centres unmarked) [Compound 297A, N′-[1-(4-bromo-3-fluoro-2-thienyl)ethyl]-N′-cyclopropyl-ethane-1,2-diamine TFA salt]",81 nM,
"CCN(CCN)Cc1cccc(Cl)c1 [Compound P401, (2-aminoethyl)[(3-chlorophenyl)methyl]ethylamine, reference compound]",,"protection against H2O2 insult (cell survival) (Primary neurons): better protection against H2O2 insult compared to FDA-approved ALS drug Riluzole and Edaravone; also recorded: better protection against H2O2 insult than the FDA-approved ALS drug Riluzole and Edaravone; protection (cell survival after glutamate/NMDA treatment) ([1]; 10 μM, primary cultured neurons, FIG. 2): ~60%; protection index ([1]; at 10 μM, scale 0.0 to 10.0, vehicle (DMSO) = 0.0): 6.0"
